Our source for the MIC values is publication PMC2888690 (Journal of combinatorial chemistry, 2009).

Molecules are shown by their SMILES. Values joined by “and” are separate entries in the source; they are usually repeats but may differ in a detail not shown here. Identical values can stand only once. Like-named read-outs stand apart in the source and are kept apart here.

For experiment [1], the system named is Bacillus anthracis Sterne. As to the kind of experiment: microbe, parasite or virus in culture. In kind it is cell-based.
The test system of experiment [2] is Bacillus anthracis Sterne. As to the kind of experiment: microbe, parasite or virus in culture. It is filed as cell-based. This is another data set of the same source.

For the molecule `O=C(Nc1ccc(NS(=O)(=O)c2ccc(Cl)c(Cl)c2)cc1)Nc1ccccc1[N+](=O)[O-]` [5{3}, 3,4-Dichloro-(N-(4-(((2-nitrophenyl)amino)carbonyl)aminophenyl))benzenesulfonamide], the MIC in experiment [1] (5 h, read-out: LB MIC) is > 240 µM and > 115 µg/mL; in experiment [1] (read-out: LB B.a. MIC), > 240 µM and > 115 µg/mL.
Take `O=C(Nc1ccc(NS(=O)(=O)c2ccc(Cl)c(Cl)c2)cc1)Nc1ccc([N+](=O)[O-])cc1` [5{1}, 3,4-Dichloro-(N-(4-(((4-nitrophenyl)amino)carbonyl)aminophenyl))benzenesulfonamide]: the MIC in experiment [2] (5 h, read-out: MH MIC) was 3.8 µM and 1.8 µg/mL; in experiment [2] (read-out: MH B.a. MIC), 3.8 µM and 1.8 µg/mL; in experiment [1] (5 h, read-out: LB MIC) it was 2.8 µM and 1.3 µg/mL; in experiment [1] (read-out: LB B.a. MIC) it was 2.8 µM and 1.3 µg/mL.
For the molecule `Nc1ccc(S(=O)(=O)Nc2ccc(NC(=O)Nc3ccccc3[N+](=O)[O-])cc2)cc1` [compound 9, 4-Amino-(N-(4-(((2-nitrophenyl)amino)carbonyl)aminophenyl))benzenesulfonamide], the MIC in experiment [1] (5 h, read-out: LB MIC) was 120 µM and 53 µg/mL.
In the case of `O=C(Nc1ccc(NS(=O)(=O)c2ccc(Cl)c(Cl)c2)cc1)Nc1cccc([N+](=O)[O-])c1` [5{2}, 3,4-Dichloro-(N-(4-(((3-nitrophenyl)amino)carbonyl)aminophenyl))benzenesulfonamide], the MIC was > 240 µM and > 115 µg/mL in experiment [1] (5 h, read-out: LB MIC); > 240 µM and > 115 µg/mL in experiment [1] (read-out: LB B.a. MIC).
